Source: patent US20240425479A1, “HALO-SUBSTITUTED AMINO AZA-HETEROARYL COMPOUNDS AS INHIBITORS OF THE HAEMATOPOIETIC PROGENITOR KINASE 1 (HPK1)” (priority 2021, published 2024)

Experiments:
[1] = molecular target: T1, Recombinant (1-346) HPK1 (h) (Homo sapiens, UniProt Q92918); assay: HPK1 human STE kinase enzymatic radiometric assay; format: biochemical; conditions: read-out: HPK1 IC50 nM Range
T1 construct: Recombinant (1-346) HPK1 (h) is incubated with 8 mM MOPS pH 7.0
T1 sequence (Q92918 1-346): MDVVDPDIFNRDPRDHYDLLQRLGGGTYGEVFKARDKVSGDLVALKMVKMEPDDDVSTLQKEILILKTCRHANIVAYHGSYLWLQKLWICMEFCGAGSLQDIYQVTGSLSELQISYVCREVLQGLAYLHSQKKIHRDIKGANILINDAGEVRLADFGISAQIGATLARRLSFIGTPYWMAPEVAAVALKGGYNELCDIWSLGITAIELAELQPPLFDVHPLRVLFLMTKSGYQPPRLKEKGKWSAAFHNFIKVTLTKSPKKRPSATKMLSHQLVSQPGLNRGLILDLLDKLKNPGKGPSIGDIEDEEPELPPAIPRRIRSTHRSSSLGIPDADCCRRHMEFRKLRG
How it was run: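 Compounds in 3-fold, 9-point serial dilution; kinase (residues 1-346) phosphorylates myelin basic protein (0.33 mg/mL) using [gamma-33P]-ATP at pH 7.0 (MOPS, EDTA, Mg acetate) for 40 min, room temperature. Acid-quenched mixture filtered onto P30 mats; incorporated radioactivity read by scintillation counting.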

Lck (h) = Lck (h) (Homo sapiens, UniProt P06239); assay: Lck human STE kinase enzymatic radiometric assay; format: biochemical; conditions: read-out: Lck IC50 nM Range
Description: (b) Lck Human STE Kinase Enzymatic Radiometric Assay
Lck (h) is incubated with 50 mM Tris pH 7.5, 0.1 mM EGTA, 0.1 mM Na3VO4, 250 uM KVEKIGEGTYGVVYK (Cdc2 peptide), 10 mM MgAcetate and [gamma-33P]-ATP (specific activity and concentration as required). The reaction is initiated by the addition of the Mg/ATP mix. After incubation for 40 minutes at room temperature, the reaction is stopped by the addition of phosphoric acid to a concentration of 0.5%, 10 μL of the reaction is then spotted onto a P30 filtermat and washed four times for 4 minutes in 0.425% phosphoric acid and once in methanol prior to drying and scintillation counting. For more details on the kinase assay procedures see: Gao, Y. et. al.; Biochem J., 451 (2): 313-328, 2013.

Chain of Lck (h) (P06239 whole entry): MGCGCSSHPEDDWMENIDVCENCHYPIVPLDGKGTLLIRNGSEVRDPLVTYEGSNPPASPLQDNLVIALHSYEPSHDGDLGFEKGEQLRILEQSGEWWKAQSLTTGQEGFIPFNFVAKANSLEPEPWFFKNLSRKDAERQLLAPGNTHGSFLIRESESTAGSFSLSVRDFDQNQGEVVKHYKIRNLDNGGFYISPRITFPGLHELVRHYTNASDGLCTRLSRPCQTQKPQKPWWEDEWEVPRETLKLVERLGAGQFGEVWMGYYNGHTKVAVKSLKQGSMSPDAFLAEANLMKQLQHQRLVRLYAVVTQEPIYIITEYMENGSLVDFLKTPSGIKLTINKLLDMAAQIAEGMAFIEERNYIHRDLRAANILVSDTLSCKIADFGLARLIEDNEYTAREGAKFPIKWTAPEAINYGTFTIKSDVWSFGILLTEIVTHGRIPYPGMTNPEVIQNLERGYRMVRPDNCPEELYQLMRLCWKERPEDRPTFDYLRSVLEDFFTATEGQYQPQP

SMILES | IC50 [1] [nM] | IC50 (Lck (h)) [nM]
Nc1nc(F)c(-c2ccc(N3CCOCC3)cc2)nc1-c1ccc2c(c1)CCNC2=O [Example I-17, 6-(3-amino-5-fluoro-6-(4-morpholinophenyl)pyrazin-2-yl)-3,4-dihydroisoquinolin-1(2H)-one] | 0.1 to 10 | > 1000
Cc1c[nH]c(=O)c2ccc(-c3nc(-c4ccc(N5CCN(C(C)C)CC5)cc4)c(F)nc3N)cc12 [Example I-62, 6-(3-amino-5-fluoro-6-(4-(4-isopropylpiperazin-1-yl)phenyl)pyrazin-2-yl)-4-methylisoquinolin-1(2H)-one] | 0.1 to 10 | 101 to 1000
Nc1nc(F)c(-c2ccc(C3CCOCC3)c(CN3CCC3)c2)nc1-c1cc2c(cc1F)C(=O)NCC2 [Example I-170, 6-(3-amino-6-(3-(azetidin-1-ylmethyl)-4-(tetrahydro-2H-pyran-4-yl)phenyl)-5-fluoropyrazin-2-yl)-7-fluoro-3,4-dihydroisoquinolin-1(2H)-one] | 0.1 to 10 | > 1000
CC(C)N1CCN(c2ccc(-c3nc(-c4ccc5c(c4)CCNC5=O)c(N)nc3Cl)cc2)CC1 [Example I-7, 6-(3-amino-5-chloro-6-(4-(4-isopropylpiperazin-1-yl)phenyl)pyrazin-2-yl)-3,4-dihydroisoquinolin-1(2H)-one] | 11 to 100 | > 1000
Nc1nc(F)c(-c2ccc(C3CCOCC3)c(CN3CCCC3)c2)nc1-c1cc2c(cc1F)C(=O)NCC2 [Example I-148, 6-(3-amino-5-fluoro-6-(3-(pyrrolidin-1-ylmethyl)-4-(tetrahydro-2H-pyran-4-yl)phenyl)pyrazin-2-yl)-7-fluoro-3,4-dihydroisoquinolin-1(2H)-one] | 0.1 to 10 | > 1000
CC(C)N1C[C@@H]2C[C@]2(c2ccc(-c3nc(-c4cc5c(cc4F)C(=O)NCC5)c(N)nc3F)cc2)C1 [Example I-6, 6-(3-amino-5-fluoro-6-(4-((1S,5R)-3-isopropyl-3-azabicyclo[3.1.0]hexan-1-yl)phenyl)pyrazin-2-yl)-7-fluoro-3,4-dihydroisoquinolin-1(2H)-one] | 0.1 to 10 | 101 to 1000
CN1C[C@@H]2C[C@]2(c2ccc(-c3nc(-c4ccc5c(=O)[nH]cc(F)c5c4)c(N)nc3F)cc2)C1 [Example I-80, 6-(3-amino-5-fluoro-6-(4-((1S,5R)-3-methyl-3-azabicyclo[3.1.0]hexan-1-yl)phenyl)pyrazin-2-yl)-4-fluoroisoquinolin-1(2H)-one] | 0.1 to 10 | > 1000
CCN(C)Cc1cc(-c2nc(-c3cc4c(cc3F)C(=O)NCC4)c(N)nc2F)ccc1C1CCOCC1 [Example I-164, 6-(3-amino-6-(3-((ethyl(methyl)amino)methyl)-4-(tetrahydro-2H-pyran-4-yl)phenyl)-5-fluoropyrazin-2-yl)-7-fluoro-3,4-dihydroisoquinolin-1(2H)-one] | 0.1 to 10 | > 1000
CC(C)N1CCN(c2ccc(-c3nc(-c4ccc5c(c4)C4(CC4)CNC5=O)c(N)nc3F)cc2)CC1 [Example I-103, 6′-(3-amino-5-fluoro-6-(4-(4-isopropylpiperazin-1-yl)phenyl)pyrazin-2-yl)-2′,3′-dihydro-1′H-spiro[cyclopropane-1,4′-isoquinolin]-1′-one] | 0.1 to 10 | 101 to 1000
CC(C)N1CCN(c2ccc(-c3nc(-c4cc5c(cc4F)C(=O)NCC5)c(N)nc3Cl)cc2)CC1 [Example I-8, 6-(3-amino-5-chloro-6-(4-(4-isopropylpiperazin-1-yl)phenyl)pyrazin-2-yl)-7-fluoro-3,4-dihydroisoquinolin-1(2H)-one] | 11 to 100 | > 1000
Nc1nc(F)c(-c2ccc(C3CCOCC3)c([C@@H]3CCCN3)c2)nc1-c1ccc2c(c1)CCNC2=O [Example I-18, (S)-6-(3-amino-5-fluoro-6-(3-(pyrrolidin-2-yl)-4-(tetrahydro-2H-pyran-4-yl)phenyl)pyrazin-2-yl)-3,4-dihydroisoquinolin-1(2H)-one] | 0.1 to 10 | > 1000

The remaining lines, values ahead:

IC50 [1] [nM] | IC50 (Lck (h)) [nM] | SMILES
0.1 to 10 | 101 to 1000 | CC(C1CC1)N1CCN(c2ccc(-c3nc(-c4cc(F)c5c(c4)CCNC5=O)c(N)nc3F)cc2)CC1 (single isomer, unassigned) [Example I-30, 6-(3-amino-6-(4-(4-(1-cyclopropylethyl)piperazin-1-yl)phenyl)-5-fluoropyrazin-2-yl)-8-fluoro-3,4-dihydroisoquinolin-1(2H)-one]
0.1 to 10 | > 1000 | Cc1[nH]c(=O)c2ccc(-c3nc(-c4ccc(N5CCN(C(C)C)CC5)cc4)c(F)nc3N)cc2c1F [Example I-71, 6-(3-amino-5-fluoro-6-(4-(4-isopropylpiperazin-1-yl)phenyl)pyrazin-2-yl)-4-fluoro-3-methylisoquinolin-1(2H)-one]
0.1 to 10 | > 1000 | Nc1nc(F)c(-c2ccc(N3CCN(C4COC4)CC3)cc2)nc1-c1cc(F)c2c(c1)CCNC2=O [Example I-44, 6-(3-amino-5-fluoro-6-(4-(4-(oxetan-3-yl)piperazin-1-yl)phenyl)pyrazin-2-yl)-8-fluoro-3,4-dihydroisoquinolin-1(2H)-one]
0.1 to 10 | 101 to 1000 | C[C@@H]1CN(c2ccc(-c3nc(-c4cc5c(cc4F)C(=O)NCC5)c(N)nc3F)cc2CN(C)C)CCO1 [Example I-173, (R)-6-(3-amino-6-(3-((dimethylamino)methyl)-4-(2-methylmorpholino)phenyl)-5-fluoropyrazin-2-yl)-7-fluoro-3,4-dihydroisoquinolin-1(2H)-one]
0.1 to 10 | > 1000 | CN(C)Cc1cc(-c2nc(-c3cc(F)c4c(c3)CCNC4=O)c(N)nc2F)ccc1C1CCOCC1 [Example I-83, 6-(3-amino-6-(3-((dimethylamino)methyl)-4-(tetrahydro-2H-pyran-4-yl)phenyl)-5-fluoropyrazin-2-yl)-8-fluoro-3,4-dihydroisoquinolin-1(2H)-one]
0.1 to 10 | > 1000 | CNCC1Cc2cc(-c3nc(-c4ccc(N5CCOCC5)cc4)c(F)nc3N)ccc2C(=O)N1 (stereo not drawn) [Example I-12, 6-(3-amino-5-fluoro-6-(4-morpholinophenyl)pyrazin-2-yl)-3-((methylamino)methyl)-3,4-dihydroisoquinolin-1(2H)-one]
0.1 to 10 | 101 to 1000 | CC(C)N1CC=C(c2ccc(-c3nc(-c4cc5c(cc4F)C(=O)NCC5)c(N)nc3F)cc2)CC1 [Example I-9, 6-(3-amino-5-fluoro-6-(4-(1-isopropyl-1,2,3,6-tetrahydropyridin-4-yl)phenyl)pyrazin-2-yl)-7-fluoro-3,4-dihydroisoquinolin-1(2H)-one]
0.1 to 10 | > 1000 | C[C@@H]1CN(c2ccc(-c3nc(-c4ccc5c(c4)CCNC5=O)c(N)nc3F)cc2CN(C)C)CCO1 [Example I-172, (R)-6-(3-amino-6-(3-((dimethylamino)methyl)-4-(2-methylmorpholino)phenyl)-5-fluoropyrazin-2-yl)-3,4-dihydroisoquinolin-1(2H)-one]
0.1 to 10 | > 1000 | COC1CCN(Cc2cc(-c3nc(-c4ccc5c(c4)CCNC5=O)c(N)nc3F)ccc2N2CCOCC2)C1 (stereo not drawn) [Example I-133, 6-(3-amino-5-fluoro-6-(3-((3-methoxypyrrolidin-1-yl)methyl)-4-morpholinophenyl)pyrazin-2-yl)-3,4-dihydroisoquinolin-1(2H)-one]
0.1 to 10 | > 1000 | CC(C)N1CCN(c2ccc(-c3nc(-c4ccc5c(=O)[nH]cnc5c4)c(N)nc3F)cc2)CC1 [Example I-37, 7-(3-amino-5-fluoro-6-(4-(4-isopropylpiperazin-1-yl)phenyl)pyrazin-2-yl)quinazolin-4(3H)-one]
0.1 to 10 | > 1000 | CN(C)Cc1cc(-c2nc(-c3ccc4c(c3)CCNC4=O)c(N)nc2F)ccc1C1CCOCC1 [Example I-59, 6-(3-amino-6-(3-((dimethylamino)methyl)-4-(tetrahydro-2H-pyran-4-yl)phenyl)-5-fluoropyrazin-2-yl)-3,4-dihydroisoquinolin-1(2H)-one]
0.1 to 10 | > 1000 | CC(C)N1CCN(c2ccc(-c3nc(-c4ccc5c(=O)[nH]cc(F)c5c4)c(N)nc3F)cc2)CC1 [Example I-66, 6-(3-amino-5-fluoro-6-(4-(4-isopropylpiperazin-1-yl)phenyl)pyrazin-2-yl)-4-fluoroisoquinolin-1(2H)-one]
0.1 to 10 | > 1000 | CC(C)N1CCN(c2ccc(-c3nc(-c4cc5c(cc4F)C(=O)NCC5)c(N)nc3F)cc2)CC1 [Example I-2, 6-(3-amino-5-fluoro-6-(4-(4-isopropylpiperazin-1-yl)phenyl)pyrazin-2-yl)-7-fluoro-3,4-dihydroisoquinolin-1(2H)-one]
